Experimental findings from patent US5420289A, “Substituted indole-, indene-, pyranoindole- and tetrahydrocarbazole-alkanoic acid derivatives as inhibitors of PLA2 and lipoxygenase” (American Home Products Corporation, priority 1993, dated 1995) are described below.

Structures can show the parent of a compound that is named as a salt.

Test [1] relates to 5-lipoxygenase in human whole blood. Put plainly: inhibition of 5-lipoxygenase in human whole blood (Example 79). The format is cell-based. The following applies: for % Inhibition of LTB4: 25 μM. A digest of the protocol:
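Donor whole blood pre-incubated 10 min at 37° C with compound (0.1% DMSO final), then stimulated with […] calcium ionophore A23187 for 20 min at 37° C; stopped on ice with EGTA. Plasma LTB4, TxB2 and PGE2 measured by RIA or ELISA as ng/10^6 neutrophils; effects expressed as percent change from control.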

The target of test [2] is T1, LTD4 (isolated guinea pig trachea) (Cavia porcellus, UniProt Q2NNR5).
T1 sequence (Q2NNR5 1-340): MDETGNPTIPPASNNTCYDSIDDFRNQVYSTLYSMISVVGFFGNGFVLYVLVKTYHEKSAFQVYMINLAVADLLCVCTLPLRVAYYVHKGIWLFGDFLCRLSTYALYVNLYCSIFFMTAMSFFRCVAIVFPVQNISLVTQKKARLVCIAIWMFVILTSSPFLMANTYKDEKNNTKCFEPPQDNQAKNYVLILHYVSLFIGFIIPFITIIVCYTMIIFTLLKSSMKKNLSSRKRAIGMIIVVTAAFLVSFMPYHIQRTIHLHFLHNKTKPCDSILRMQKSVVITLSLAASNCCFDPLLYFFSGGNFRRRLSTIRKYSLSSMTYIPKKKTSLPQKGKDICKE
Put plainly: in vitro isolated guinea pig trachea assay, LTD4 antagonism (Example 77). On the set-up: from tissue; host or cells: isolated trachea rings of male Hartley guinea pigs; species or system guinea pig (male Hartley). The conditions noted are these: Table VII; 1 × 10^-5 M. As for the experimental part: The LTD4 antagonist activity of the compounds of the invention is assessed in the in vitro isolated guinea pig trachea assay. This assay is carried out as follows: Male Hartley guinea pigs (350-400 g) are euthanized by a blow to the head, the neck is opened and the trachea removed. The trachea is maintained in aerated physiological salt solution, cleared of connective tissue and fat and cut into tings approximately 2 nxn in width (usually containing two cartilaginous segments per ting). Two pieces of silk suture are then passed through the lumen of the tracheal ring and are tied around the cartilage, one on each side of the trachealis muscle. The tracheal ting is suspended between a glass hook and a force […] transducer in a 10 mL organ bath for measurement of isometric tension. […] The tracheal […] maintained at 2 g resting tension and equilibrated for 45 minutes (with frequent washing and readjustment of resting tension). The tracheal rings are first contracted by the addition of carbachol (3×10^-6 M), to determine tissue responsiveness and establish a reference contraction. On attainment of a stable level of contraction (approximately 30 minutes), the tissues are washed several times until baseline tension has been restored and then re-equilibrated for 30 minutes. The tissues are then incubated for 45 minutes with a test antagonist (either 1×10^-6 M or 1×10^-5 M) or […] of an appropriate solvent control (control, non-treated). One tissue in each group serves as the control. Twenty minutes prior to the construction of the LTD4 cumulative concentration-response curve, L-[…]×10^-2 M final bath concentration) is added to inhibit bioconversion of LTD4 to LTE4. Only one LTD4 concentration-response curve is constructed in each tissue. All responses to LTD4 in an individual tissue are measured as a percentage of the reference contraction of that tissue to carbachol. LTD4 antagonist activity is determined by comparison of the concentration response curves of LTD4 in the presence and absence of antagonist. Assessment of the relative rightward shift of the antagonist treated curve relative to the solvent (control) treated tissue is calculated as a concentration ratio (Eq. A) and used in subsequent calculations to derive an antagonist pKB value (Eqs B and C). […] If a compound is found to be active and/or depress the maximal response to LTD4, then a range of concentrations of the test compound should be used generating multiple concentration ratios which would then be used to perform a Schild analysis, and determination of a pA2 value where appropriate.

Test [3] concerns the target T2, human synovial fluid PLA2 (Homo sapiens, UniProt P14555).
T2 sequence (P14555 21-144): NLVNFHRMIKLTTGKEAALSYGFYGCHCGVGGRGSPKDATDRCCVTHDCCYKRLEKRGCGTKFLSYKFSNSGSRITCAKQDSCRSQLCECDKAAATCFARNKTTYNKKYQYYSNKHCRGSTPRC
Briefly: in vitro isolated phospholipase A2 assay, human synovial fluid PLA2 (Example 74). It counts as biochemical. On the set-up: inhibition / % Inhibition, HSF (human synovial fluid): dose or concentration left out as unconfirmed. The following applies: for inhibition: read-out: % Inhibition, HSF (human synovial fluid). The procedure, abridged:
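Human synovial fluid PLA2 (purified) acts on ³H-arachidonate-labelled E. coli substrate, 10 minutes at 37° C with shaking; stopped with tetrahydrofuran. Released arachidonic acid is isolated on NH2 columns, eluted with tetrahydrofuran/2% acetic acid and quantitated by β-counting against a total-counts sample.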

Another test concerns the target T3, human platelet PLA2 (Homo sapiens, UniProt P14555).
T3 construct: Semi-purified human platelet acid extract PLA2; from tissue; host or cells: human platelets (semi-purified acid extract)
T3 sequence (P14555 21-144): T2 sequence (P14555 21-144)
Briefly: in vitro isolated phospholipase A2 assay, human platelet PLA2 (Example 74). It counts as biochemical. On the set-up: dose or concentration left out as unconfirmed. The conditions noted are these: read-out: % Inhibition, HP (human platelet). The procedure, abridged: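 Semi-purified human platelet acid-extract PLA2 (pH 4.5 acetate) was incubated with ³H-arachidonate-labelled E. coli substrate for 10 min at 37° C. The reaction was terminated with tetrahydrofuran. Released arachidonic acid was isolated on NH2 columns and quantified by β-counting against total counts.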

Test [4] concerns cyclooxygenase (PGE2 synthesis) in rat polymorphonuclear leukocytes (PMN). Put plainly: inhibition of PGE2 synthesis (cyclooxygenase) by rat glycogen-elicited PMN (Example 73). It counts as cell-based, rat (female Wistar). The following applies: Leukocyte, * (negative) denotes a potentiation; for inhibition at 500 µM: at 0.5 mM; for inhibition at 10000 µM: at 10 mM, read-out: % Inhibition (PGE2 synthesis). How it is done: (§1) Rat polymorphonuclear leukocytes (PMNs) are obtained from female Wistar rats (150-200 g) which receive an injection of 6% glycogen (10 ml i.p.). Rats are sacrificed 18-24 hours post injection by CO2 asphyxiation and the elicited cells are harvested by peritoneal lavage using physiological saline (0.9% NaC1). The exudate is centrifuged at 400 ×g for 10 minutes. The supernatant fluid is discarded and the cell pellet is resuspended to a concentration of 2.0×10^7 cells/mL in HBSS containing Ca^++ and Mg^++ and 10 mM L-cysteine.
(§2) To 1 mL aliquots of cell suspension, test drugs or vehicle are added, then preincubated at 37° C. for 10 minutes. A23187 (1 mM), [^3 H]-AA (3.0 mCi/mL) and unlabeled AA (1 mM) are then added and the samples are further incubated for 10 minutes. The reaction is terminated by centrifugation and pelleting cells. Supernatants are then analyzed by HPLC analysis on a 15 cm×4.6 mm ID supelcosil LC-18 (Supelco)(3M) column, using a two solvent system at a flow rate of 1.4 mL total flow as follows:
In this assay, the procedure of Example 72 is carried out as described. However, in order to determine cyclooxygenase activity, the samples are cochromatographed with authentic reference [^3 H]-PGE2.
The results be calculated as in Example 72 and presented below: […]

Test [5] concerns paw edema induced by PLA2 from the diamond back cotton mouth snake (A. piscivorus piscivorus). Put plainly: in vivo PLA2 murine paw edema assay (Example 75). On the set-up: species or system mouse (male CD-1). The following applies: 30 mg/kg i.p.; 30 min.
For test [6], the system named is synthesis of LTB4 by rat glycogen-elicited polymorphonuclear leukocytes (PMN). Put plainly: inhibition of LTB4 synthesis by rat glycogen-elicited PMN (Example 72). The format is cell-based, rat (female Wistar). The conditions noted are these: Leukocyte; for inhibition at 500 µM: at 0.5 mM; for inhibition at 10000 µM: at 10 mM, negative number denotes potentiation.
Text: This is especially true with respect to 5,12-diHETE, which is also denoted as LTB4 lsee Ford-Hitchinson, J. Roy. Soc. Med., 74, 831 (1981)]. Compounds which inhibit the PLA2 -mediated release of arachidonic acid thereby effectively prevent the oxidation of arachidonic acid to the various leukotriene products via the lipoxygenase cascade. Accordingly, the specificity of action of PLA2 inhibitors can be determined by the activity of test compounds in this assay, which measures the ability of compounds to inhibit the synthesis of LTB4 by rat glycogen-elicited polymorphonuclear leukocytes (PMN) in the presence of exogenous substrate.
The assay is carded out as follows:
as §1, §2
Gradient: (system is equilibrated with Solvent A)
Percent solvent changes are accomplished in a linear fashion.
Injections: […] of each supernatant is injected directly onto column and ^3 H arachidonic acid metabolites are monitored using an on-line radioactivity detector (Ramona, IN/U S, Fairfield, NJ).
Standards: 10^4 -2.0×10^4 dpm of eicosanoids of interest are injected in […] EtOH cocktail.
Co-chromatography with standard [^3 H] leukotriene B4 (LTB4) in medium of stimulated PMN exposed to drug is compared to that found in medium of stimulated cells exposed to no drug, generating percent inhibition.
Results are expressed as percent inhibition at a given compound dose or as an IC50 value.

For the next test, the system named is carrageenan paw edema. Put plainly: rat carrageenan paw edema assay (Example 78). It counts as in vivo, rat (male Sprague-Dawley). As for the experimental part:
The compounds of the invention are further tested in the rat carrageenan paw edema assay to determine their ability to inhibit the acute inflammatory response.
This assay is carried out as follows: 140-180 g Male Sprague-Dawley rats, in groups of 6 animals are injected subcutaneously in the right paw with 0.1 mL of 1% carrageenan at zero time. Mercury plethysmographic readings (mL) of the paw are made at zero time and 3 hours later. Test compounds are suspended or dissolved in 0.5% methylcellulose and given perorally 1 hour prior to carrageenan administration.
The increase in paw volume (edema in mL) produced by the carrageenan is measured. Paw edema is calculated (3 hour volume minus zero time volume), and percent inhibition of edema is determined. Unpaired Student's t-test is used to determine statistical significance.
(In general: The carrageenan paw model is a standard test of acute inflammation.)

As to `CCN(CC)C(=O)Cc1c(C)n(Cc2ccccc2)c2ccc(OCc3nc4ccccc4s3)cc12` [Example 52, 5-(2-Benzothiazolylmethoxy)-N,N-diethyl-1-(phenylmethyl)-2-methyl-1H-indole-3-acetamide], the “% Inhibition of LTB4” value in test [1] came to 68%. Moreover, in test [1] (human whole blood, read-out: IC50 (inhibition of LTB4)), the IC50 (usually the concentration needed to halve the response being measured) came to 19.9 µM. Moreover, the Kb (as a rule, the equilibrium dissociation constant of an antagonist, usually derived from a functional assay) in test [2] was 2510 nM. In test [3], the inhibition (in general, the change of the read-out against control, counted positive when it falls) is 12%.
In test [2], `Cc1c(CC(=O)O)c2cc(OCc3ccc4ccccc4n3)ccc2n1Cc1ccc(Cl)cc1` [Example 43, 1-[(4-Chlorophenyl)methyl]-2-methyl-5-(2-quinolinylmethoxy)-1H-indole-acetic acid tromethamine salt hemi-ethanolate] showed a Kb of 1000 nM.
As to `Cc1c(CC(=O)O)c2cc(OCc3ccc4ccccc4n3)ccc2n1Cc1ccc2ccccc2n1` [Example 18, 2-Methyl-5-(2-quinolinylmethoxy)-1,2-(quinolinylmethy)-1H-indole-3-acetic acid], the inhibition was 47% on human platelet PLA2 and 30% in test [3]. The inhibition at 500 µM in test [4] is -31%; in test [6], 88%. This compound also gave a Kb in test [2] of 1410 nM. In test [5], the “% Change in Edema” value is recorded as -19%. In addition, in test [3] (Table III, read-out: IC50 HSF (human synovial fluid)), the IC50 stood at 27 µM.
Turning to `CC1(C)OCCc2c1[nH]c1ccc(OCc3ccc4ccccc4n3)cc21` [Example 14, 1,3,4,9-Tetrahydro-1,1-dimethyl-6-(2-quinolinylmethoxy)pyrano[3,4-b]indole], the inhibition at 10000 µM in test [4] is -48%; in test [6], 91%. The “% Inhibition 50 mg/kg (peroral)” value in the test on carrageenan paw edema (50 mg/kg peroral, 3 hours after carrageenan) turned out to be 27%.
As for `CCC1(CC(=O)O)OCCc2c1[nH]c1ccc(OCc3ccc4ccccc4n3)cc21` (stereo not drawn) [Example 9, 1-Ethyl-1,3,4,9-tetrahydro-6-(quinolinylmethoxy)pyrano[3,4-b]indole-1-acetic acid], the inhibition at 10000 µM was found to be 75% in test [4] and 96% in test [6]. This compound also showed a Kb in test [2] of 550 nM.
`CCOC(=O)Cc1c(C)n(Cc2ccccc2)c2ccc(OCc3nc4ccccc4s3)cc12` [Example 50, 5-(2-Benzothiazolylmethoxy)-1-(phenylmethyl)-2-methyl-1H-indole-3-acetic acid ethyl ester]: the “% Inhibition of LTB4” value in test [1] is recorded as 95%. In addition, in test [2], the Kb is 3980 nM. Further, the inhibition in test [3] is 2%.
`CCc1cccc2c3c([nH]c12)C(CC)(CC(=O)O)OCC3` (stereo not drawn) [etodolac, reference compound]: the inhibition at 500 µM came out at 100% in test [4] and 21% in test [6]. The 50% effective dose (ED50) (commonly the dose at which the effect has come halfway, by size or by number of responders) in the test on carrageenan paw edema (Rattus norvegicus, 3 h, oral, Table VIII) was 23 mg/kg.
